According to article PMC9271792 (Frontiers in Endocrinology, 2022):
“Also recorded” adds a separate entry of the source.

Tests used:
[1] = test system: Akt / GSK-3β / S6 / AS160 phosphorylation in R^-IR-B cells; assay: Western blot dose-response, PI3K/Akt pathway, R-IR-B fibroblasts; assay type: cell-based, mouse cells; human IR-B; settings: 10 min, significant difference only at 0.1 nM (p* ≤ 0.05 to p** ≤ 0.01)
Experimental: (§5) R/^-IR-B (80,000 cells/well) or L6 IR-A cells (240,000 cells/well) were seeded in 6-well plates and allowed to grow to confluence (~ 48 hours). Prior to stimulation, cells were serum starved in SFM/1% BSA for 4 h. […] Lysates were scraped from the well, spun at 13,000 rpm for 3 min at 0°C to remove cell debris and stored at -80°C. Lysate protein concentrations were quantified using Bio-Rad DC™ Protein Assay and 20μg of each sample was separated in 10% glycine gels under reducing conditions. Transferred blots were blocked for 1 h at room temperature in TBST containing 3% BSA and probed with primary antibodies (Pathscan Antibody, pAkt(Thr308), pGSK(Ser9), pAS160(Thr642)) in blocking solution (TBST containing 3% BSA) overnight at 4°C. […]
(§6) Phosphorylation levels are expressed as percentage of level detected […]
(§7) were determined via 2-way ANOVA (bars above graph); difference comparing each stimulating concentration (pink asterisks) were further analyzed using Holm-Sidak test. ns: non-significant; * (P ≤ 0.05), ** (P ≤ 0.01); *** (P ≤ 0.001); **** (P ≤ 0.0001).

IR-A = IR-A receptor internalization; assay type: cell-based, human; settings: 10 nM, 2 hours post-stimulation
Experimental: (§1) All data are the mean ± S.E.M. n = at least 3 independent experiments. Error bars are shown when greater than the size of the symbols.
(§2) Assays were performed in triplicate in at least three independent experiments.

[2] = test system: L6 rat skeletal myoblasts overexpressing human IR-A (L6 IR-A cells); assay: DNA synthesis assay (EdU incorporation); assay type: cell-based; settings: 18 h, 0.01 - 300 nM, compared to native insulin
Experimental: as §2

IGF-1R [3] = target: T1, IGF-1R (Homo sapiens, UniProt P08069); settings: cis dicarba insulin, footnote b; ref [9]; cited from earlier work
T1 construct: expressed in transfected cells; host or cells: P6 cells (BALB/c3T3 mouse fibroblasts overexpressing human IGF-1R); Triton X-100 lysate captured on anti-IGF-1R antibody 24-31

C57BL6 male mice = assay: Insulin tolerance test; assay type: in vivo, mouse; settings: 0.75 IU/kg ip
IR [4] = settings: ref [9], [30]; cited from earlier work
[5] = target: T2, IR-A (phospho-Tyr1150/Tyr1151) (Homo sapiens, UniProt P06213); assay: IR-A phosphorylation Tyr1150/Tyr1151 time-course (western blot); assay type: cell-based; settings: L6 IR-A, 10 nM, 0–10 min
T2 construct: expressed in transfected cells; host or cells: L6 rat skeletal myoblasts over-expressing human IR-A (hIR-A L6), from Novo Nordisk
Text: as §1

[6] = test system: p52 Shc (phospho-Tyr239/Tyr240) in L6 IR-A cells; assay: p52 Shc phosphorylation time-course (western blot); assay type: cell-based, rat cells; human IR-A; settings: 10 nM
Experimental: (§3) Figure 6 Cis-dicarba analogues are incapable of promoting IR-A internalization due to inability to promote phosphorylation of IR-A, IRS-1 and Shc. […] Data are presented as % of surface receptor/total receptor followed by normalisation with % of surface receptor in SFM at t = 0; i.e. SFM at t = 0 is equivalent to 100%. […] All data are the mean ± S.E.M. n = at least 3 independent experiments. Error bars are shown when greater than the size of the symbols. Statistical significance were determined via one-way repeated measures ANOVA followed by Dunnets multiple test.
R/^-IR-B (80,000 cells/well) or L6 IR-A cells (240,000 cells/well) were seeded in 6-well plates and allowed to grow to confluence (~ 48 hours). Prior to stimulation, cells were serum starved in SFM/1% BSA for 4 h. […] Lysates were scraped from the well, spun at 13,000 rpm for 3 min at 0°C to remove cell debris and stored at -80°C. Lysate protein concentrations were quantified using Bio-Rad DC™ Protein Assay and 20μg of each sample was separated in 10% glycine gels under reducing conditions. […]
Dose response blots were developed in ECL reagent according to manufacturer’s instruction and imaged in Fujiflim LAS-4000 Luminescent Image Analyzer. […] All data were analysed with LI-COR Image Studio™ software and each band intensity was normalized to tubulin of its respective lane.

[7] = test system: Akt / GSK-3β / S6 / AS160 phosphorylation in L6 IR-A cells; assay: Western blot dose-response, PI3K/Akt pathway (Akt, GSK-3β, S6, AS160), L6 IR-A; assay type: cell-based, rat cells; human IR-A
Experimental: (§8) R/^-IR-B (80,000 cells/well) or L6 IR-A cells (240,000 cells/well) were seeded in 6-well plates and allowed to grow to confluence (~ 48 hours). Prior to stimulation, cells were serum starved in SFM/1% BSA for 4 h. […] Lysates were scraped from the well, spun at 13,000 rpm for 3 min at 0°C to remove cell debris and stored at -80°C. Lysate protein concentrations were quantified using Bio-Rad DC™ Protein Assay and 20μg of each sample was separated in 10% glycine gels under reducing conditions. Transferred blots were blocked for 1 h at room temperature in TBST containing 3% BSA and probed with primary antibodies (Pathscan Antibody, pAkt(Thr308), pGSK(Ser9), pAS160(Thr642)) in blocking solution (TBST containing 3% BSA) overnight at 4°C. All blots were also probed with anti-β-tubulin as a loading control. Blots were washed six times for 5 min each in TBST then probed with either HRP-conjugated (dose-response) or fluorophore-conjugated (time-course) secondary antibodies for 1 hour at room temperature. The washing was then repeated.
(§9) Dose response blots were developed in ECL reagent according to manufacturer’s instruction and imaged in Fujiflim LAS-4000 Luminescent Image Analyzer. […] All blots were performed at least three times. All data were analysed with LI-COR Image Studio™ software and each band intensity was normalized to tubulin of its respective lane.

mitogenic signalling = settings: ref [9], [30]; cited from earlier work
IR [8] = settings: KIRA; compared to insulin; ref [9]; cited from earlier work
Text: This is similar to the poorly mitogenic S597 peptide, which also promoted slowe ...

IR isoform B (IR-B) = target: T3, IR isoform B (IR-B) (Homo sapiens, UniProt P06213); settings: cis dicarba insulin, footnote b, ref [9], cited from earlier work
T3 construct: expressed in transfected cells; host or cells: R-IR-B cells (IGF-1R knockout mouse embryonic fibroblasts over-expressing human IR-B); Triton X-100 lysate captured on anti-IR antibody 83-7

[9] = test system: Akt / GSK-3β / S6 phosphorylation in L6 IR-A cells; assay: Western blot time-course, PI3K/Akt pathway, L6 IR-A; assay type: cell-based, rat cells; human IR-A; settings: 10 nM, 0–30 min, p-Akt Ser473, p-Akt Thr308, p-GSK3β, p-S6
Experimental: as §8
(§10) Dose response blots were developed in ECL reagent according to manufacturer’s instruction and imaged in Fujiflim LAS-4000 Luminescent Image Analyzer. Time course blots were imaged with an Odyssey® CLx Imaging System. All blots were performed at least three times. All data were analysed with LI-COR Image Studio™ software and each band intensity was normalized to tubulin of its respective lane.

IRS-1 in L6 IR-A cells = assay: IRS-1 activation time-course (immunoprecipitation, pTyr20); assay type: cell-based, rat cells; human IR-A; settings: 10 nM
Experimental: as §3
Activated IRS-1 was determined using immunoprecipitation. Anti-IRS-1 antibody(4ug) was pre incubated with protein G agarose overnight at 4°C before adding to lysates to immunoprecipitate IRS-1 overnight at 4°C. Complexes were washed three times in PBS, boiled under reducing conditions and samples separated on 10% glycine gels. Transferred blots were blocked for 1 h at room temperature in TBST containing 3% BSA and probed with primary antibodies (anti-IRS-1 for total IRS-1 protein, or anti pTyr20 for total phosphorylated protein in immunoprecipitation) in blocking solution (TBST containing 3% BSA) overnight at 4°C. Blots were washed six times for 5 min each in TBST then probed with fluorophore-conjugated secondary antibodies (donkey anti-mouse 680RD and anti- rabbit 800CW) for 1 hour at room temperature. […]

IGF-1R [10] = target: T1, IGF-1R; settings: ref [9]; cited from earlier work
Text: (§4) This contrasts with cis-dicarba insulin which wa ...

IR-B = settings: ref [9]; cited from earlier work
Text: as §4

[11] = test system: ERK 1 / ERK 2 / p90RSK phosphorylation in R^-IR-B cells; assay: Western blot dose-response, MAPK pathway, R-IR-B fibroblasts; assay type: cell-based, mouse cells; human IR-B; settings: 0.1–100 nM, 10 min, 2-way ANOVA
Experimental: as §5, §6, §7

NIH3T3-L1 adipocytes = assay: Glucose uptake assay (2-deoxyglucose); assay type: cell-based; settings: paired T-test; n = at least 3
Experimental: NIH3T3-L1 myoblasts (up to passage 20) grown in DMEM supplemented with 10% newborn calf serum, 2mM L-glutamine, 100 U/l penicillin, 100 µg/L streptomycin at 37°C were seeded into 24-well plates at 5 x 10^3 cells/well and grown for 8 days to confluence. They were then differentiated into adipocytes as described in Govers et al. ([51]). After differentiation the NIH3T3-L1 cells express 37,000 IGF-1R and 250,000 IR per cell ([52]). […] Briefly, 3T3-L1 adipocytes were serum starved in SFM/1% BSA for 4 h, washed twice with Krebs-Ringer phosphate buffer (KRP; 12.5mM HEPES, 120mM NaCl, 6mM KCl, 1.2mM MgSO4, 1mM CaCl2, 0.4mM Na2HPO4, 0.6mM Na2HPO4 (pH7.4)) containing 1% BSA and incubated for 15min at 37°C. […] For the final 10 min 2-deoxyglucose (DOG) uptake was initiated by the addition of 50 µM cold deoxyglucose and 1 µCi ^3H –deoxyglucose per well. The assay was terminated by rapidly washing the cells three times with ice-cold KRP buffer. Cells were solubilized in 0.5 M NaOH/0.1% SDS and ^3H content was determined by scintillation counting. Nonspecific 2-DOG uptake was determined in the presence of 50μM cytochalasin B. Assays were performed in triplicate in at least three independent experiments.

[12] = test system: ERK 1 / ERK 2 / p90RSK phosphorylation in L6 IR-A cells; assay: Western blot dose-response, MAPK pathway (ERK1, ERK2, p90RSK), L6 IR-A; assay type: cell-based, rat cells; human IR-A
Experimental: as §8, §9

metabolic activity = settings: ref [9], [30]; cited from earlier work
[13] = test system: ERK 1/2 / p90RSK phosphorylation in L6 IR-A cells; assay: Western blot time-course, MAPK pathway, L6 IR-A; assay type: cell-based, rat cells; human IR-A; settings: 10 nM, 0–30 min
Experimental: as §8, §10

[14] = dose-response, compared to insulin

Substance: cis-[Δ^4A6,11]-dicarba human insulin [cis dicarba insulin]
- Akt phosphorylation at Ser473 (in words) [1]: generally similar to their parent peptides
- IR-A internalization (in words) (IR-A): significantly impaired ability to promote IR-A internalization, with virtually all receptor remaining on the surface 2 hours post-stimulation; also recorded: ineffective in promoting IR internalisation
- DNA synthesis, fold reduction in mitogenic potency vs native insulin [2]: ~ 5 fold
- Affinity (% Insulin ± SEM), IGF-1R (IGF-1R [3]): ~100 % Insulin
- IC50 (IGF-1R [3]): > 300 nM
- blood glucose lowering (in words) (C57BL6 male mice; chow fed mice, non-fasting, 2 hours post-treatment): no statistical difference
- blood glucose change, significance vs parent (AUC) (C57BL6 male mice; insulin vs cis-dicarba insulin, glargine vs cis-dicarba glargine, paired T-test, n = 5-6 per group): ns
- IR binding (in words) (IR [4]): binds the IR with equal affinity to insulin
- IR-A Tyr1150/Tyr1151 phosphorylation (in words) [5]: much slower to stimulate receptor activation; also recorded: reduced kinetics of activation compared to insulin
- IR-A Tyr1150/Tyr1151 phosphorylation, response relative to insulin ([5]; % of that of insulin): ~ 20%
- Shc activation (in words) [6]: significantly less potent in activating both IRS-1 and Shc
- Shc activation relative to insulin ([6]; 0–10 min, compared to insulin): ~ 30%
- Akt phosphorylation at Ser473 (in words) ([7]; L6 IR-A, 10 min, significant difference only at 0.1 nM (p* ≤ 0.05 to p** ≤ 0.01)): generally similar to their parent peptides
- PI3K/Akt pathway activation (in words) [7, 14]: equal potency in activating the PI3K/Akt pathway
- mitogenic response (in words) (mitogenic signalling): poor at activating a mitogenic response
- total receptor phosphorylation in kinase receptor activation assay (in words) (IR [8]): almost as potent as insulin in a kinase receptor activation assay
- Affinity (% Insulin ± SEM), IR-B (IR isoform B (IR-B); non-statistically significant): 100 % Insulin
- IC50 (IR isoform B (IR-B)): 1.07 ± 0.3 nM
- kinetics of activation of the PI3K/Akt pathway (in words) [9]: essentially the same
- IRS-1 activation (in words) (IRS-1 in L6 IR-A cells): significantly less potent in activating both IRS-1 and Shc
- IRS-1 activation relative to insulin (IRS-1 in L6 IR-A cells; 0–10 min, compared to insulin): ~ 30%
- binding and activation of IGF-1R (in words) (IGF-1R [10]): equipotent to insulin in both binding and activation of IR-B and IGF-1R
- binding and activation of IR-B (in words) (IR-B): equipotent to insulin in both binding and activation of IR-B and IGF-1R
- p-Erk 1 (T202/Y204), overall significance vs parent [11]: * (P ≤ 0.05)
- glucose uptake, significance of difference between insulin, cis-dicarba insulin and cis-dicarba glargine (NIH3T3-L1 adipocytes): ns
- phosphorylation of ERK 1, ERK 2 and p90RSK (in words) ([12]; 0.1–10 nM, t = 10 min, p* ≤ 0.05 to p**** ≤ 0.0001 vs parent): significantly reduced phosphorylation levels of ERK 1, ERK 2 and p90RSK
- p-p90RSK (S380), overall significance vs parent ([12]; L6 IR-A, 0.1–100 nM, 10 min, 2-way ANOVA): * (P ≤ 0.05)
- MAPK pathway activation (in words) [12, 14]: significantly less effective than insulin or glargine, respectively, in activating the MAPK pathway; also recorded: significantly less potent at activating the MAPK pathway
- metabolic activity (in words) (metabolic activity): promotes equivalent metabolic activity
- MAPK signalling activation, ERK1/2 and p90RSK (in words) ([13]; compared to parent): lower level of activation of MAPK signalling
- ERK 1/2 phosphorylation maximal level (in words) ([13]; compared to parent peptides): never achieved the maximal level attained through stimulation by their corresponding parent peptides
